Patent US10940144B2, “Drug containing pyridylaminoacetic acid compound” (priority 2017, dated 2021)

Columns and labels:
retinal blood vessels = assay: Pharmacological Test 1: retinal vasodilatory action (retinal vascular diameter from fundus images) after intravitreal administration to rabbits; format: in vivo, rabbit; settings: for Base-Corrected Retinal Vascular Diameter Change Rate (%) 1 Hour After Administration / Base-Corrected Retinal Vascular Diameter Change Rate (%) 2 Hours After Administration / Base-Corrected Retinal Vascular Diameter Change Rate (%) 6 Hours After Administration / Base-Corrected Retinal Vascular Diameter Change Rate (%) 24 Hours After Administration: 20 μL intravitreal single injection, pigmented rabbits
Protocol: In order to find a new medicinal use of omidenepag, an ester thereof, or a salt thereof, the retinal vasodilatory action in the case of administering omidenepag to rabbits was examined. Omidenepag at 4.01 mg was dissolved in dimethyl sulfoxide to a total volume of 129 μL. Of the total volume, 10 μL was added and dissolved into physiological saline, and an appropriate amount of sodium hydroxide solution was added to adjust the pH of the formulation to 6.2. Thereafter, physiological saline was further added to a total volume of 10 mL to obtain omidenepag sample 1 (containing 0.00311% (w/v) (31.1 μg/mL) of omidenepag). In addition, the base A was added to 0.1 mL of omidenepag sample 1 to a total volume of 10 mL, and omidenepag sample 2 was obtained (containing 0.0000311% (w/v) (0.311 μg/mL) of omidenepag). CP-544326 (EP2 agonist) at 5.98 mg was dissolved in dimethyl sulfoxide to a total volume of 192 μL. Of the total volume, 10 μL was added and dissolved into physiological saline, and sodium hydroxide solution was added to adjust the pH of the formulation to 6.5. Thereafter, physiological saline was further added to a total volume of 10 mL to obtain CP-544326 sample 1 (containing 0.00311% (w/v) (31.1 μg/mL) of CP-544326). In addition, the base A was added to 0.1 mL of CP-544326 sample 1 to a total volume of 10 mL, and CP-544326 sample 2 was obtained (containing 0.0000311% (w/v) (0.311 μg/mL) of CP-544326). The base A, omidenepag samples 1 and 2, and CP-544326 samples 1 and 2 as test compound solutions, each at 20 μL, were administered intravitreally (injection, single time) to examine the change in retinal vascular diameter. In addition, pigmented rabbits (strain: Dutch, sex: male, three animals per group) were used as experimental animals. 1) After holding the above experimental animals, one drop (about 0.03 mL) of a 0.4% tropicamide ophthalmic solution (trade name: Mydrin-M ophthalmic solution 0.4%) was instilled into the retinal vascular diameter measurement eye to fully dilate the pupil. Thereafter, fundus images of the measurement eyes were captured, and the retinal vascular diameters and the like immediately before administration were measured from the obtained fundus images. 2) One drop (about 0.03 mL) of a 0.4% oxybuprocaine hydrochloride ophthalmic solution (trade name: Benoxil ophthalmic solution 0.4%) was instilled into the retinal vascular diameter measurement eye of each experimental animal for local anesthesia. Thereafter, a microsyringe connected with a 30 G injection needle was used to administer 20 μL of each test compound solution into the vitreous body. 3) At 1 hour, 2 hours, 6 hours, and 24 hours after administration of each test compound solution, fundus images of the retinal vascular diameter measuring eyes were captured, and the retinal vascular diameters and the like were measured from the obtained fundus images. (a) The fundus images captured immediately before the administration, 1 hour, 2 hours, 6 hours, and 24 hours after the administration were used to measure, as the vascular diameters, (i) the vascular diameter of the retinal artery on the nose side, (ii) the vascular diameter of the retinal artery on the ear side, and (iii) the optic nerve head diameter (longitudinal diameter passing through the center of the optic nerve head). (b) The average value of (i) the vascular diameter of the retinal artery on the nose side and (ii) the vascular diameter of the retinal artery on the ear side measured from the fundus images for each time period was divided by (iii) the optic nerve head diameter to calculate the corrected retinal vascular diameter. […]

[1] = test system: optic nerve head tissue blood flow; assay: Pharmacological Test 3: optic nerve head tissue blood flow (laser speckle flowgraphy) after intravitreal administration to rabbits; format: in vivo, rabbit
Protocol: In order to find anew medicinal use of omidenepag, an ester thereof, or a salt thereof, the action of increasing tissue blood flow in the optic nerve head in the case of administering omidenepag to rabbits was examined.
Omidenepag at 3.99 to 4.03 mg was dissolved in dimethyl sulfoxide to a total volume of 128 to 130 μL. Of the total volume, 10 μL was added and dissolved into physiological saline, and an appropriate amount of sodium hydroxide solution was added to adjust the pH of the formulation to 6.3 to 7.2. Thereafter, physiological saline was further added to a total volume of 10 mL to obtain omidenepag sample 3 (containing 0.00311% (w/v) (31.1 μg/mL) of omidenepag).
The base C and omidenepag sample 3 as test compound solutions, each at 20 μL, were administered intravitreally (injection, single time) to examine the change in optic nerve head tissue blood flow. In addition, pigmented rabbits (strain: Dutch, sex: male, three animals per group) were used as experimental animals. […]
3) At 1 hour and 2 hours after administration of each test compound solution, the optic nerve head tissue blood flow of the optic nerve head tissue blood flow measurement eye was measured.
(a) The ratio of the optic nerve head tissue blood flow after passage of each of the time periods of 1 hour and 2 hours after administration to the optic nerve head tissue blood flow immediately before administration (optic nerve head tissue blood flow change rate (%)) was calculated. […]
(b) For each time period after administration, the difference (base-corrected optic nerve head tissue blood flow change rate (%)) was calculated between the optic nerve head tissue blood flow change rate (%) of the group administered with the base C simultaneously carried out and the optic nerve head tissue blood flow change rate (%) of the group administered with omidenepag sample 3. […]

Row | SMILES | Base-Corrected Retinal Vascular Diameter Change Rate (%) 1 Hour After Administration (retinal blood vessels; 0.0000311% (w/v) (0.311 μg/mL)) | Base-Corrected Retinal Vascular Diameter Change Rate (%) 2 Hours After Administration (retinal blood vessels; 0.0000311% (w/v) (0.311 μg/mL)) | Base-Corrected Retinal Vascular Diameter Change Rate (%) 6 Hours After Administration (retinal blood vessels; 0.0000311% (w/v) (0.311 μg/mL)) | Base-Corrected Retinal Vascular Diameter Change Rate (%) 24 Hours After Administration (retinal blood vessels; 0.0000311% (w/v) (0.311 μg/mL)) | Base-Corrected Retinal Vascular Diameter Change Rate (%) 1 Hour After Administration (retinal blood vessels; 0.00311% (w/v) (31.1 μg/mL)) | Base-Corrected Retinal Vascular Diameter Change Rate (%) 2 Hours After Administration (retinal blood vessels; 0.00311% (w/v) (31.1 μg/mL)) | Base-Corrected Retinal Vascular Diameter Change Rate (%) 6 Hours After Administration (retinal blood vessels; 0.00311% (w/v) (31.1 μg/mL)) | Base-Corrected Retinal Vascular Diameter Change Rate (%) 24 Hours After Administration (retinal blood vessels; 0.00311% (w/v) (31.1 μg/mL)) | retinal vasodilatory action compared with CP-544326 (in words) (retinal blood vessels; at the same concentration, intravitreal, rabbits) | Base-Corrected Optic Nerve Head Tissue Blood Flow Change Rate (%) 1 Hour After Administration ([1]; 0.00311% (w/v) (31.1 μg/mL), 20 μL intravitreal single injection, pigmented rabbits, 1 hour) | Base-Corrected Optic Nerve Head Tissue Blood Flow Change Rate (%) 2 Hours After Administration ([1]; 0.00311% (w/v) (31.1 μg/mL), 20 μL intravitreal single injection, pigmented rabbits, 2 hours) | blood flow increasing action, optic nerve head (in words) ([1]; intravitreal administration, rabbits)
1 | O=C(O)COc1cccc(CN(Cc2ccc(-n3cccn3)cc2)S(=O)(=O)c2cccnc2)c1 [CP-544326, reference compound] | 14.8% | 9.0% | 0.8% | 3.5% | 48.4% | 57.5% | 72.2% | 3.7% |  |  |  | 
2 | O=C(O)CNc1cccc(CN(Cc2ccc(-n3cccn3)cc2)S(=O)(=O)c2cccnc2)n1 [Omidenepag, (6-{[4-(pyrazol-1-yl)benzyl](pyridin-3-ylsulfonyl)aminomethyl}pyridin-2-ylamino)acetic acid] | 35.8% | 35.4% | 22.3% | 2.9% | 81.2% | 71.9% | 88.1% | 11.8% | significantly stronger retinal vasodilatory action | 343.6% | 327.8% | significantly strong blood flow increasing action
